Assay results published in patent US11208379B2, “Compounds, compositions, methods for treating diseases, and methods for preparing compounds” (UNIVERSITY OF LOUISVILLE RESEARCH FOUNDATION, INC., priority 2017, dated 2021).

System: A549 lung cancer cells
Experiment: Cell death / cell survival by trypan blue exclusion
Assay type: cell-based, human
Details: A549, 1 μM, FIG. 36 top panel
Method: A549 (human lung adenocarcinoma) cells and MDA-MB-231 (human breast adenocarcinoma) cells were cultured in DMEM medium containing 10% FBS and 1% Penicillin/Streptomycin. IMR-90 (human non-malignant lung fibroblast) cells were cultured in EMEM medium containing 10% FBS and 1% Penicillin/Streptomycin. MCF10A (human non-malignant breast epithelial) cells in MEBM containing 10% FBS. Cell viability after treatment was determined using 3-(4,5-dimethylthiazol-2-yl)-2,5-diphenyltetrazolium bromide (MTT). After 72 h treatment with compound, a 5 mg/ml solution MTT of (Sigma, St. Louis, Mo.) was added in at 1/10 total sample volume. Cells were then incubated for 4 h. Lysis buffer (10% SDS in 0.01 N HCl) was added at half of the original sample volume and incubated overnight. Plates were read at 570 nm. Graphs indicate average of one or two experiments (performed in quadruplet wells)±SEM. Cell death in A549 cells was assessed by trypan blue exclusion. […] ROS production in A549 lung cancer cells after 48 h treatment with the compounds was assayed using ROS-Glo™ H2O2 Assay Kit (Promega).
A549 (human lung adenocarcinoma) cells and MDA-MB-231 (human breast adenocarcinoma) cells were cultured in DMEM medium containing 10% FBS and 1% Penicillin/Streptomycin. IMR-90 (human non-malignant lung fibroblast) cells were cultured in EMEM medium containing 10% FBS and 1% Penicillin/Streptomycin. […]

CCOC(=S)N/N=C(C)/C(C)=N/NC(=S)NC [I-4]
cell viability (trypan blue exclusion): less effective
